# Laboratory results reported in patent US20070232615A1, “Chemical Compounds” (priority 2004, published 2007).
# Test system: HIV
# Assay: HOS HIV infectivity assay (Table 2, strain not given)
# Type: cell-based
# Settings: Human immunodeficiency virus 1, read-out: Activity Level
# Method: HOS HIV-1 Infectivity Assay
# Compounds were profiled against two HIV-1 viruses, the M-tropic (CCR5 utilizing) Ba-L strain and the T-tropic (CXCR4 utilizing) IIIB strain. Both viruses were propagated in human peripheral blood lymphocytes. Compounds were tested for there ability to block infection of the HOS cell line (expressing hCXCR4/hCCR5/hCD4/pHIV-LTR-luciferase) by either HIV-1 Ba-L or HIV-1 IIIB. Compound cytotoxicity was also examined in the absence of virus addition.
# HOS HIV-1 Infectivity Assay Format
# HOS cells (expressing hCXCR4/hCCR5/hCD4/pHIV-LTR-luciferase) were harvested and diluted in Dulbeccos modified Eagles media supplemented with 2% FCS and non-essential amino acid to a concentration of 60,000 cells/ml. The cells were plated into 96-well plates (100 ul per well) and the plates were placed in a tissue culture incubator (37° C.; 5% CO2/95% air) for a period of 24 h.
# Subsequently, 50 ul of the desired drug solution (4 times the final concentration) was added to each well and the plates were returned to the tissue culture incubator (37° C.; 5% CO2/95% air) for 1 h. Following this incubation 50 ul of diluted virus was added to each well (approximately 2 million RLU per well of virus). The plates were returned to the tissue culture incubator (37° C.; 5% CO2/95% air) and were incubated for a further 96 h.
# Following this incubation the endpoint for the virally infected cultures was quantified following addition of Steady-Glo Luciferase assay system reagent (Promega, Madison, Wis.). Cell viability or non-infected cultures was measured using a CellTiter-Glo luminescent cell viability assay system (Promega, Madison, Wis.). All luminescent readouts are performed on a Topcount luminescence detector (Packard, Meridien, Conn.).
row,SMILES,IC50
1,"CN1CCN(c2cccc3nc(CN(Cc4ccc(F)cc4)[C@H]4CCCc5cccnc54)cn23)CC1 [Example 62, (8S)—N-[(4-Fluorophenyl)methyl]-N-{[5-(4-methyl-1-piperazinyl)imidazo[1,2-a]pyridin-2-yl]methyl}-5,6,7,8-tetrahydro-8-quinolinamine]",< 100 nM
2,"CN(Cc1cn2c(OCCN3CCCC3)cccc2n1)[C@H]1CCCc2cccnc21 [Example 105, (8S)—N-Methyl-N-[(5-{[2-(1-pyrrolidinyl)ethyl]oxy}imidazo[1,2-a]pyridin-2-yl)methyl]-5,6,7,8-tetrahydro-8-quinolinamine]",< 100 nM
3,"CCCN(Cc1cn2c(N3CCN(C)CC3)cccc2n1)[C@H]1CCCc2cccnc21 [Example 56, (8S)—N-{[5-(4-Methyl-1-piperazinyl)imidazo[1,2-a]pyridin-2-yl]methyl}-N-propyl-5,6,7,8-tetrahydro-8-quinolinamine]",< 100 nM
4,"CN1CCN(c2cccc3nc(CN(Cc4ccc(Br)cc4)[C@H]4CCCc5cccnc54)cn23)CC1 [Example 65, (8S)—N-[(4-Bromophenyl)methyl]-N-{[5-(4-methyl-1-piperazinyl)imidazo[1,2-a]pyridin-2-yl]methyl}-5,6,7,8-tetrahydro-8-quinolinamine]",< 100 nM
5,"CN(C)CCOc1cccc2nc(CN(C)[C@H]3CCCc4cccnc43)cn12 [Example 104, (8S)—N-[(5-{[2-(Dimethylamino)ethyl]oxy}imidazo[1,2-a]pyridin-2-yl)methyl]-N-methyl-5,6,7,8-tetrahydro-8-quinolinamine]",< 100 nM
6,"CC(C)c1ccc(CN(Cc2cn3c(N4CCN(C)CC4)cccc3n2)[C@H]2CCCc3cccnc32)cc1 [Example 75, (8S)—N-{[4-(1-Methylethyl)phenyl]methyl}-N-{[5-(4-methyl-1-piperazinyl)imidazo[1,2-a]pyridin-2-yl]methyl}-5,6,7,8-tetrahydro-8-quinolinamine]",< 100 nM
7,"CN1CCN(c2cccc3nc(CN(Cc4cccc(Br)c4)[C@H]4CCCc5cccnc54)cn23)CC1 [Example 64, (8S)—N-[(3-Bromophenyl)methyl]-N-{[5-(4-methyl-1-piperazinyl)imidazo[1,2-a]pyridin-2-yl]methyl}-5,6,7,8-tetrahydro-8-quinolinamine]",< 100 nM
8,"CN(Cc1cn2c(NC(=O)c3ccncc3)cccc2n1)C1CCCc2cccnc21 (centres unmarked) [Example 45, N-(2-{[Methyl(5,6,7,8-tetrahydro-8-quinolinyl)amino]methyl}imidazo[1,2-a]pyridin-5-yl)-4-pyridinecarboxamide]",500 to 10000 nM
9,"CN(C)CCN(C)c1cccc2nc(CN(C)[C@H]3CCCc4cccnc43)cn12 [Example 81, N,N,N′-Trimethyl-N′-[2-({methyl[(8S)-5,6,7,8-tetrahydro-8-quinolinyl]amino}methyl)imidazo[1,2-a]pyridin-5-yl]-1,2-ethanediamine]",< 100 nM
10,"Cc1ccc(CN(Cc2cn3c(N4CCN(C)CC4)cccc3n2)[C@H]2CCCc3cccnc32)cc1 [Example 68, (8S)—N-[(4-Methylphenyl)methyl]-N-{[5-(4-methyl-1-piperazinyl)imidazo[1,2-a]pyridin-2-yl]methyl}-5,6,7,8-tetrahydro-8-quinolinamine]",< 100 nM
11,"CN(Cc1cn2c(NCCN3CCCCC3)cccc2n1)[C@H]1CCCc2cccnc21 [Example 103, (8S)—N-Methyl-N-[(5-{[2-(1-piperidinyl)ethyl]amino}imidazo[1,2-a]pyridin-2-yl)methyl]-5,6,7,8-tetrahydro-8-quinolinamine]",< 100 nM
12,"CN(Cc1cn2c(-c3cccnc3)cccc2n1)C1CCCc2cccnc21 (centres unmarked) [Example 40, N-Methyl-N-{[5-(3-pyridinyl)imidazo[1,2-a]pyridin-2-yl]methyl}-5,6,7,8-tetrahydro-8-quinolinamine]",500 to 10000 nM
13,"CCN(Cc1cn2c(N3CCN(C)CC3)cccc2n1)[C@H]1CCCc2cccnc21 [Example 54, (8S)—N-Ethyl-N-{[5-(4-methyl-1-piperazinyl)imidazo[1,2-a]pyridin-2-yl]methyl}-5,6,7,8-tetrahydro-8-quinolinamine]",< 100 nM
14,"CN1CCN(c2cccc3nc(CN(Cc4ccccc4)[C@H]4CCCc5cccnc54)cn23)CC1 [Example 59, (8S)—N-{[5-(4-Methyl-1-piperazinyl)imidazo[1,2-a]pyridin-2-yl]methyl}-N-(phenylmethyl)-5,6,7,8-tetrahydro-8-quinolinamine]",< 100 nM
15,"CN1CCN(c2cccc3nc(CN(Cc4ccc(C(F)(F)F)cc4)[C@H]4CCCc5cccnc54)cn23)CC1 [Example 71, (8S)—N-{[5-(4-Methyl-1-piperazinyl)imidazo[1,2-a]pyridin-2-yl]methyl}-N-{[4-(trifluoromethyl)phenyl]methyl}-5,6,7,8-tetrahydro-8-quinolinamine]",< 100 nM

# Other lines, results leading:
row,IC50,SMILES
1,< 100 nM,"CN(C)[C@H]1CCN(c2cccc3nc(CN(C)[C@H]4CCCc5cccnc54)cn23)C1 [Example 91, (8S)—N-({5-[(3S)-3-(Dimethylamino)-1-pyrrolidinyl]imidazo[1,2-a]pyridin-2-yl}methyl)-N-methyl-5,6,7,8-tetrahydro-8-quinolinamine]"
2,< 100 nM,"CN(Cc1cn2c(N3CC[C@@H](N)C3)cccc2n1)C1CCCc2cccnc21 (stereo partly drawn) [Example 27, N-({5-[(3R)-3-Amino-1-pyrrolidinyl]imidazo[1,2-a]pyridin-2-yl}methyl)-N-methyl-5,6,7,8-tetrahydro-8-quinolinamine]"
3,< 100 nM,"CCN(CC)[C@@H]1CCN(c2cccc3nc(CN(C)[C@H]4CCCc5cccnc54)cn23)C1 [Example 93, (8S)—N-({5-[(3R)-3-(Diethylamino)-1-pyrrolidinyl]imidazo[1,2-a]pyridin-2-yl}methyl)-N-methyl-5,6,7,8-tetrahydro-8-quinolinamine]"
4,500 to 10000 nM,"CN(Cc1cn2c(N3CCOCC3)cccc2n1)C1CCCc2cccnc21 (centres unmarked) [Example 20, N-Methyl-N-{[5-(4-morpholinyl)imidazo[1,2-a]pyridin-2-yl]methyl}-5,6,7,8-tetrahydro-8-quinolinamine]"
5,< 100 nM,"CN1CCCN(c2cccc3nc(CN(C)C4CCCc5cccnc54)cn23)CC1 (centres unmarked) [Example 31, N-Methyl-N-{[5-(4-methylhexahydro-1H-1,4-diazepin-1-yl)imidazo[1,2-a]pyridin-2-yl]methyl}-5,6,7,8-tetrahydro-8-quinolinamine]"
6,100 to 500 nM,"CN(C)CCN1CCN(c2cccc3nc(CN(C)C4CCCc5cccnc54)cn23)CC1 (centres unmarked) [Example 32, N-[(5-{4-[2-(Dimethylamino)ethyl]-1-piperazinyl}imidazo[1,2-a]pyridin-2-yl)methyl]-N-methyl-5,6,7,8-tetrahydro-8-quinolinamine]"
7,< 100 nM,"CN(Cc1cn2c(N3CC[C@@H](N)C3)cccc2n1)[C@H]1CCCc2cccnc21 [Example 92, (8S)—N-({5-[(3R)-3-Amino-1-pyrrolidinyl]imidazo[1,2-a]pyridin-2-yl}methyl)-N-methyl-5,6,7,8-tetrahydro-8-quinolinamine]"
8,< 100 nM,"CN1CCN(c2cccc3nc(CN(C)[C@H]4CCCc5cccnc54)cn23)CC1 [Example 50, (8S)—N-Methyl-N-{[5-(4-methyl-1-piperazinyl)imidazo[1,2-a]pyridin-2-yl]methyl}-5,6,7,8-tetrahydro-8-quinolinamine]"
9,< 100 nM,"CN(Cc1cn2c(N3CC[C@@H](N(C)C)C3)cccc2n1)C1CCCc2cccnc21 (stereo partly drawn) [Example 23, N-({5-[(3R)-3-(Dimethylamino)-1-pyrrolidinyl]imidazo[1,2-a]pyridin-2-yl}methyl)-N-methyl-5,6,7,8-tetrahydro-8-quinolinamine]"
10,< 100 nM,"CN1CCN(c2cccc3nc(CN(C)C4CCCCc5cccnc54)cn23)CC1 (centres unmarked) [Example 47, N-Methyl-N-{[5-(4-methyl-1-piperazinyl)imidazo[1,2-a]pyridin-2-yl]methyl}-6,7,8,9-tetrahydro-5H-cyclohepta[b]pyridin-9-amine]"
11,< 100 nM,"CN(Cc1cn2c(N3CCC(N)CC3)cccc2n1)C1CCCc2cccnc21 (centres unmarked) [Example 37, N-{[5-(4-Amino-1-piperidinyl)imidazo[1,2-a]pyridin-2-yl]methyl}-N-methyl-5,6,7,8-tetrahydro-8-quinolinamine]"
12,< 100 nM,"CCN1CCN(c2cccc3nc(CN(C)[C@H]4CCCc5cccnc54)cn23)CC1 [Example 88, (8S)—N-{[5-(4-Ethyl-1-piperazinyl)imidazo[1,2-a]pyridin-2-yl]methyl}-N-methyl-5,6,7,8-tetrahydro-8-quinolinamine]"
13,< 100 nM,"COCCN1CCN(c2cccc3nc(CN(C)C4CCCc5cccnc54)cn23)CC1 (centres unmarked) [Example 33, N-Methyl-N-[(5-{4-[2-(methyloxy)ethyl]-1-piperazinyl}imidazo[1,2-a]pyridin-2-yl)methyl]-5,6,7,8-tetrahydro-8-quinolinamine]"
14,< 100 nM,"CN(C)[C@@H]1CCN(c2cccc3nc(CN(C)[C@H]4CCCc5cccnc54)cn23)C1 [Example 83, (8S)—N-({5-[(3R)-3-(Dimethylamino)-1-pyrrolidinyl]imidazo[1,2-a]pyridin-2-yl}methyl)-N-methyl-5,6,7,8-tetrahydro-8-quinolinamine]"
